Source: patent publication US20240287477A1, “CATALASE MIMETIC PEPTIDES” (Northwestern University, priority 2023, published 2024)
Square brackets hold non-standard residues; d marks the D form. Ends that are not written are not given here.

What was measured:
Type in all cases: cell-based
Fibronectin (FN1) = experiment: Western blot of mesenchymal marker Fibronectin in transformed cells, day 5; details: 4-OHT treated only
Description: (§1) FIG. 1A. REDOX effects promoted by peptidyl di-copper complex. (A) Oxidized (λex=[…]) and reduced (λex=[…]) roGFP2 signals 30 minutes after exposure to the metallocomplex (Day 1) and at the final of the experiment (Day 5) were measured and the oxidized/reduced ratio was obtained using ImageJ (shown as histogram). FIG. 1B. Representative images of MCF-10AER/cSrc transformation after treatment with 4-hydroxy-tamoxifen (1 μM) registered by Lionheart (phase contrast). FIG. 1C. Western blot analysis of E-Cadherin (E-Cad), Fibronectin (FN1), and Vimentin (Vim) in MCF-10AER/cSrc transformed cells (5 days after 4-OHT treatment). CATm1-peptidyl di-copper complex, as previously reported, DNK01-peptidyl di-copper complex with D-amino acids, sd-single dose, cd-daily doses.
(§2) Experiments were conducted during development of embodiments herein to measure the expression of EMT markers in this system at the end of the experiment (day 5). […] But in cells exposed only to 4-OHT, the levels dropped to almost 50% in comparison to the control cells. In the same FIGURE, the mesenchymal markers Vimentin and Fibronectin were also probed by western blot. […] Transformed cells, 4-OHT treated, expressed 3 times compared to control, and cells also treated with peptides in single doses.

E-Cadherin (E-Cad) = experiment: Western blot of epithelial marker E-cadherin in transformed cells, day 5; details: cells exposed only to 4-OHT
Description: as §1, §2

[1] = tested on: MCF-10A ER/cSrc/NLS-Orp1-roGFP2 cells; experiment: Nuclear ROS by NLS-roGFP2-Orp1 oxidized/reduced ratio after 4-OHT exposure; details: peptide 250 μM, CuSO4 500 μM; for ROS levels: day 5
Description: as §1
Lyophilized peptides were resuspended in MOPS buffer (30 mM, pH 7.5) to a concentration of 5 mM; a 50 mM copper solution was prepared in the same buffer. Both solutions were mixed in a 1:2 (peptide:copper) concentration 30 minutes before applying them to the cell culture. The final concentration of the complex in the cell culture was peptide at 250 μM and CuSO4 at 500 μM. The culture was monitored by measuring the ratio I(405/525)/I(488/525) given by the NLS-roGFP2-Orp1.
Exposure to 4-hydroxytamoxifen (4-OHT) transforms MCF-10A ER/cSrc/NLS-Orp1-roGFP2 cells into a tumorous cell line due to the oxidation of the nuclear compartment. Experiments were conducted by measuring the nuclear ROS in these cells. Probe oxidation status was monitored for 5 days after exposure to 4-OHT (FIG. 1A). […] It was not sufficient to keep the ROS levels as low as on day 1. This was due to a disruption of the complex and accumulation of free copper in the media.

MCF-10AER/cSrc = experiment: Transformation (spiked shape) of cells after 4-hydroxy-tamoxifen, phase contrast imaging; details: after 4-OHT (1 μM); either in single dose or every day
Description: as §1
Another important observation was the delayed transformation of the cells in the system. After exposure to 4-OHT, cells acquired a spiked shape as soon as day 1 to day 2 (FIG. 1B). This process was delayed for two days when the cells were exposed to Cu^2+-CATm1 or Cu^2+-DNK01 either in single dose or every day.

| Substance | Fibronectin expression compared to control (Fibronectin (FN1)) [times] | E-cadherin levels in comparison to the control cells (E-Cadherin (E-Cad)) [%] | levels of nuclear oxidants ([1]; day 1, right after exposure (30 minutes), 4-OHT treated cells) | ROS levels ([1]; presented everyday with fresh media) | ROS levels ([1]; single dose in day 1) | delay of transformation of the cells (spiked shape) (MCF-10AER/cSrc) |
| --- | --- | --- | --- | --- | --- | --- |
| 4-hydroxytamoxifen [4-OHT] | 3 | ~50 |  |  |  |  |
| PHYKHRLH (also: di-copper complex) [CATm1, short peptidyl di-copper complex developed to mimic catalase, as previously reported] |  |  | lower levels of nuclear oxidants | keep the ROS in lower levels | ROS levels increase | two |
| dPdHdYdKdHdRdLdH ([dP][dH][dY][dK][dH][dR][dL][dH]; also: di-copper complex) [DNK01, peptidyl di-copper complex with D-amino acids] |  |  |  |  |  | two |
